Read-outs that look alike come from different tables or passages of the source.
Experiments:
human 5-HT2B receptor [1] = target: T1, human 5-HT2B receptor (Homo sapiens, UniProt P41595); assay: Human 5-HT2B FLIPR calcium mobilization assay; assay type: cell-based; design: expressed in transfected cells; host or cells: HEK293
Procedure: Compound potency (EC50) and efficacy (Max response) against the human 5-HT2B receptor in stably transfected HEK293 cells were determined in a calcium mobilization-based assay.
Cells were seeded in a total volume of 20 μL into white walled, 384-well microplates and incubated at 37° C. overnight. Prior to testing, cell plating media was exchanged with 20 μL of Dye Loading buffer (HBSS+20 mM HEPES containing 1× Dye, 1× Additive A, and 2.5 mM Probenecid). Plates were incubated at 37° C. for 45 mins followed by 15 mins at room temperature.
(§1) 10 μL of assay buffer (HBSS+20 mM HEPES) were added to cells. Intermediate dilution of sample stocks was performed to generate 4× samples in assay buffer. Assay plates and compound plates were loaded into the FLIPR instrument. 10 μL of sample was added using the FLIPR onboard robotics after 5 seconds of starting calcium measurement. A final assay vehicle concentration was 1%. The results are expressed as percent efficacy relative to the maximum response of the control ligand (serotonin) in Table 12.
Compound potency (EC50) and efficacy (Max response) against the human 5-HT2B receptor in stably transfected HE K293 cells was determined in a calcium mobilization-based assay.
as §1, with “HEPES) was” for “HEPES) were”, “of samples were” for “of sample was”, “5 secs” for “5 seconds”, “measurement. The” for “measurement. A”, “Table 62.” for “Table 12.”

[2] = Plasma protein binding by equilibrium dialysis, human; assay type: in vitro ADME; conditions: Human plasma, 1 μM
Procedure: (§2) The final concentration of compound was 1 μM. The final concentration of DMSO was 0.5%. Ketoconazole was used as positive control in the assay.
(§3) The assay was performed in duplicate.
(§4) All calculations were carried out using Microsoft Excel. […] The percentages of bound compound were calculated as follows: […]
(§5) Ketoconazole was used as positive control in the assay.

[3] = Plasma protein binding by equilibrium dialysis, mouse; assay type: in vitro ADME; conditions: Mouse plasma, 1 μM
Procedure: as §2, §3, §4, §5

human 5-HT2B receptor [4] = target: T1, human 5-HT2B receptor; assay: Human 5-HT2B positive allosteric modulator (PAM) assay; assay type: cell-based; design: expressed in transfected cells; host or cells: HEK293
Procedure: Compound potency (EC50) and efficacy (Max response) against the human 5-HT2B receptor in stably transfected HEK293 cells were determined in a GPCR cell-based assay.
(§6) For Positive Allosteric Modulator determination, cells were pre-incubated with sample followed by EC20 addition. Intermediate dilution of sample stocks were performed to generate 5× samples in assay buffer. 5 μL of 5× samples were added to cells and incubated at 37° C. for 10 mins. 5 μL of agonist at 6×EC20 concentration was added and cells were incubated at 37° C. for 120 mins. Final assay vehicle concentration was 1%. The results are expressed as percent efficacy relative to the maximum response of the control ligand (serotonin) in Table 14.
Compound potency (EC50) and efficacy (Max response) against the human 5-HT2B receptor in stably transfected HEK293 cells was determined in a GPCR cell-based assay.
as §6, with “sample stocks was performed to” for “sample stocks were performed to”, “added and the cells were” for “added and cells were”, “120 mins. The final assay vehicle” for “120 mins. Final assay vehicle”, “in Table 64.” for “in Table 14.”

[5] = Pharmacokinetic studies in rat (i.v.); assay type: in vivo; conditions: male, Sprague-Dawley, plasma, iv, 1.19 mg/kg, rat plasma; for half-life / AUC(0-t): i.v. 1.19 mg/kg; for concentration at 0.25 h / concentration at 1 h / concentration at 4 h: i.v., dose 1.19 mg/kg
Procedure: Animals: Male Sprague-Dawley rats (˜225-350 g) from Charles River Labs were acclimatized for a minimum of 5 days prior to start of study procedures. Body weights were recorded on the day of dosing.
Any abnormalities were documented including presence/absence of wet dog shakes/back muscle contractions (WDS/BMC).
Dosing: Formulations were administered intravenously (i.v.) via the tail vein using a 25 G needle connected to a 1 cc syringe.
The exemplary compounds of Formula (I) were freshly prepared at the appropriate concentrations in 5% Tween-80 in saline.
Blood collection time (h): 0, […], 1 and 4
Volume/time-point: ˜0.25 mL (saphenous vein)
Instrumentation: AB Sciex QTRAP 4000 or 6500 MS/MS system equipped with an LC system with a binary pump, a solvent degasser, a thermostated column compartment, and a multiplate autosampler.
Analysis software: Phoenix® WinNonlin® 8.3 (Pharsight, Certara, Mountainview, CA).
Analysis methods: non-compartmental analysis, linear up/log down trapezoidal rule.
PK parameters: t1/2 and AUC0-tlast was estimated.
The Compounds of Formula (I) were freshly prepared at the appropriate concentrations in 5% Tween-80 in saline.
Instrumentation: AB Sciex QTRAP 4000 or 6500 MS/MS system equipped with an LC system with a binary pump, a solvent degasser, a thermostated column compartment and a multiplate autosampler.
PK parameters: t1/2 and AUC0-tlast will be estimated.

[6] = Plasma protein binding by equilibrium dialysis, dog; assay type: in vitro ADME; conditions: Dog plasma, 1 μM
Procedure: as §2, §3, §4, §5

[7] = mean of 3 rats, read-out: Plasma concentration, Mean ± SD
[8] = rat R01, read-out: Plasma concentration, R01
[9] = rat R02, read-out: Plasma concentration, R02
[10] = rat R03, read-out: Plasma concentration, R03

T1 sequence (P41595 whole entry): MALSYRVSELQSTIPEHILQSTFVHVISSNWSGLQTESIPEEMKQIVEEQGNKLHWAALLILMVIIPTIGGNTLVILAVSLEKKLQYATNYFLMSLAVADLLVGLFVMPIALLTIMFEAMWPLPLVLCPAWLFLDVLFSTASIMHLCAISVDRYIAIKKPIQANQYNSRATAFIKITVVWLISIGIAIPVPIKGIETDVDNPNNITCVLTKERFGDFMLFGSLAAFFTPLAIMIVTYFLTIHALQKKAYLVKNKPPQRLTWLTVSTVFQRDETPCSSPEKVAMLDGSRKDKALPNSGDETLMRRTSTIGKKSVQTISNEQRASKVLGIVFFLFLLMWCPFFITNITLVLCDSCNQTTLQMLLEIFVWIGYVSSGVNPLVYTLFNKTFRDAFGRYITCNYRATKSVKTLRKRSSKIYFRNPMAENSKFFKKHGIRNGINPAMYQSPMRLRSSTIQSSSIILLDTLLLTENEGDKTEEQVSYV

SMILES: CSc1ccc2[nH]cc(C[C@H]3CCCN3C)c2c1 [(R) I-1, (R)-3-((1-Methylpyrrolidin-2-yl)methyl)-5-(methylthio)-1H-indole]
- EC50 (human 5-HT2B receptor [1]): 2.74 nM
- Emax (% of serotonin) (human 5-HT2B receptor [1]; calcium mobilization FLIPR, HEK293 cells, relative to maximum response of serotonin): 62.94 % of serotonin
- % Remaining @ 6 hours ([2]; 6 hours, 37° C.): 103.38%
- fraction unbound at 6 h, 1 μM ([2]; equilibrium dialysis 6 hours, 37° C., read-out: % Bound (converted)): 0.16
- recovery at 6 h, 1 µM ([2]; human, plasma, equilibrium dialysis 6 hours): 102%
- recovery at 6 h, 1 µM ([3]; CD-1, mouse, plasma, equilibrium dialysis 6 hours): 113%
- fraction unbound at 6 h, 1 μM ([3]; CD-1, equilibrium dialysis 6 hours, 37° C., read-out: % Bound (converted)): 0.521
- % Remaining @ 6 hours ([3]; 6 hours, 37° C.): 112.85%
- EC50 (human 5-HT2B receptor [4]): > 10000 nM
- Emax (% of serotonin) (human 5-HT2B receptor [4]; PAM mode, agonist at EC20, HEK293 cells, relative to maximum response of serotonin): 0 % of serotonin
- half-life ([5]; mean of 3 rats, estimated from 2 points only, read-out: Apparent t1/2, Mean ± SD (converted)): 47.1 ± 10.4 min
- AUC(0-t) ([5]; mean of 3 rats, read-out: AUC0-tlast, Mean ± SD): 136 ± 22 ng·h/mL
- half-life ([5]; rat R01, estimated from 2 points only, read-out: Apparent t1/2, R01 (converted)): 58.5 min
- AUC(0-t) ([5]; rat R01, read-out: AUC0-tlast, R01): 151 ng·h/mL
- half-life ([5]; rat R02, estimated from 2 points only, read-out: Apparent t1/2, R02 (converted)): 37.9 min
- AUC(0-t) ([5]; rat R02, read-out: AUC0-tlast, R02): 111 ng·h/mL
- half-life ([5]; rat R03, estimated from 2 points only, read-out: Apparent t1/2, R03 (converted)): 44.9 min
- AUC(0-t) ([5]; rat R03, read-out: AUC0-tlast, R03): 147 ng·h/mL
- concentration at 0.25 h [5, 7]: 109 ± 12.9 ng/mL
- concentration at 0.25 h [5, 8]: 120 ng/mL
- concentration at 0.25 h [5, 9]: 112 ng/mL
- concentration at 0.25 h [5, 10]: 94.7 ng/mL
- concentration at 1 h [5, 7]: 46.1 ± 18.1 ng/mL
- concentration at 1 h [5, 8]: 42.3 ng/mL
- concentration at 1 h [5, 9]: 30.3 ng/mL
- concentration at 1 h [5, 10]: 65.8 ng/mL
- concentration at 4 h [5, 7]: 3.96 ± 2.8 ng/mL
- concentration at 4 h [5, 8]: 7.04 ng/mL
- concentration at 4 h [5, 9]: 1.56 ng/mL
- concentration at 4 h [5, 10]: 3.27 ng/mL
- recovery at 6 h, 1 µM ([6]; Beagle, dog, equilibrium dialysis 6 hours): 92.9%
- fraction unbound at 6 h, 1 μM ([6]; Beagle, equilibrium dialysis 6 hours, 37° C., read-out: % Bound (converted)): 0.174
- % Remaining @ 6 hours ([6]; 6 hours, 37° C.): 95.50%
